{"source": "paper PMC8016166", "about": "“Identification of a Potent and Selective 5-HT1A Receptor Agonist with In Vitro and In Vivo Antinociceptive Activity” (ACS Chemical Neuroscience, 2020)", "key": {"Male Swiss CB1 mice": {"test_system": "Male Swiss CB1 mice", "assay": "Formalin test", "type": "in vivo, mouse", "procedure": "Male Swiss CB1 mice (Envigo, S. Pietro al Natisone (UD)) weighing 25–30 g were used. The animals were kept at a constant room temperature (25 ± 1 °C) under a 12:12 h light and dark cycle, with free access to food and water. Each mouse was used for only one experiment. […] All the tests were performed blind to treatment.\nThe formalin (5%, 10 μL; Sigma-Aldrich) was injected subcutaneously into the plantar side of the right hind paw.[68] After injection, the mice were immediately placed in a plexiglas box: the total time (in seconds) spent on licking or biting the injected hind paw was recorded every 5 min at selected intervals, 0–10 (phase I) and 10–60 (phase II) min, in the different experimental groups, as an indicator of nociceptive behavior. […] A mean response was then calculated for each phase. […] A vehicle solution containing 10% DMSO was given as a control. Morphine was used as positive control. The test compound and vehicle were […] (i.p.) administered (5 mL/kg) 15 min before the formalin. […] The data are expressed as mean values (SEM). Analyses of variance (two-way repeated measures ANOVA followed by post hoc Bonferroni test) were performed to assess significance using the Instat 3.0 software (GraphPad Software, San Diego, CA). p < 0.05 was considered significant."}, "MDCK-MDR1 monolayers": {"test_system": "MDCK-MDR1 monolayers", "design": "method as in PMID 30043643", "settings": "cited from earlier work"}}}
{"smiles": "c1ccc(C2(c3ccccc3)OCC(CNCCOc3ccccc3-c3ccncc3)O2)cc1", "note": "(racemic) [rac-1, N-[(2,2-diphenyl-1,3-dioxolan-4-yl)methyl]-2-[2-(pyridin-4-yl)phenoxy]ethan-1-ammonium hydrogenoxalate]", "values": [{"measurement": "analgesic effect in first and second phases of the formalin test", "setting": "Male Swiss CB1 mice; 10 mg/kg i.p., formalin 5% 10 μL intraplantar", "value": "significant analgesic effects"}, {"measurement": "analgesic effect after pretreatment with WAY-100635", "setting": "Male Swiss CB1 mice; 1 10 mg/kg i.p., WAY-100635 3 mg/kg i.p. 30 min before, second phase", "value": "prevented its analgesic effect"}, {"measurement": "efflux ratio", "setting": "MDCK-MDR1 monolayers; MDCK-MDR1 monolayers", "value": "low"}, {"measurement": "permeation of MDCK-MDR1 monolayers mimicking the BBB", "setting": "MDCK-MDR1 monolayers", "value": "permeate, by passive diffusion"}]}
